Test results published in the NIST ThermoML archive (doi:10.1021/je034223r).

What was measured:
[1] = heat capacity at constant pressure per volume; xn = mol fraction of the nth substance listed; conditions: 298.15 K, 101.3 kPa, Liquid, Flow calorimetry
[2] = refractive index (Na D-line) (dimensionless); xn = mol fraction of the nth substance listed; conditions: 298.15 K, 101.3 kPa, Liquid, refractometer
[3] = excess molar enthalpy (molar enthalpy of mixing); xn = mol fraction of the nth substance listed; conditions: 298.15 K, 101.3 kPa, Liquid, Flow calorimetry
[4] = xn = mol fraction of the nth substance listed; conditions: 298.15 K, 101.3 kPa, Liquid, vibrating tube
[5] = refractive index (Na D-line) (dimensionless); conditions: 298.15 K; 101.33 kPa; Liquid; Standard Abbe refractometry
[6] = molar heat capacity at constant pressure; conditions: 298.15 K; 101.33 kPa; Liquid; Flow calorimetry
[7] = 298.15 K; 101.33 kPa; Liquid; Vibrating tube method

CCCCCC(C)=O [2-heptanone] + C1COCO1
Conditions	excess molar enthalpy [kcal/mol]	heat capacity [J/K/m3]	mass density [kg/m3]	refractive index
[1], x2 = 0.0872	–	1721500	–	–
[1], x2 = 0.1656	–	1720700	–	–
[1], x2 = 0.2372	–	1720000	–	–
[1], x2 = 0.3167	–	1719700	–	–
[1], x2 = 0.3868	–	1719900	–	–
[1], x2 = 0.4649	–	1720200	–	–
[1], x2 = 0.541	–	1721000	–	–
[1], x2 = 0.6252	–	1722500	–	–
[1], x2 = 0.6995	–	1724400	–	–
[1], x2 = 0.7807	–	1726700	–	–
[1], x2 = 0.8584	–	1729700	–	–
[2], x2 = 0.0796	–	–	–	1.4064
[2], x2 = 0.1592	–	–	–	1.40592
[2], x2 = 0.2381	–	–	–	1.40542
[2], x2 = 0.315	–	–	–	1.40489
[2], x2 = 0.3582	–	–	–	1.40459
[2], x2 = 0.3981	–	–	–	1.4043
[2], x2 = 0.437	–	–	–	1.404
[2], x2 = 0.4767	–	–	–	1.4037
[2], x2 = 0.5147	–	–	–	1.4034
[2], x2 = 0.5562	–	–	–	1.40305
[2], x2 = 0.5892	–	–	–	1.40276
[2], x2 = 0.6363	–	–	–	1.40234
[2], x2 = 0.6694	–	–	–	1.40202
[2], x2 = 0.7034	–	–	–	1.40169
[2], x2 = 0.7886	–	–	–	1.40078
[2], x2 = 0.8717	–	–	–	1.39979
[2], x2 = 0.9502	–	–	–	1.39873
[3], x2 = 0.1	0.028	–	–	–
[3], x2 = 0.15	0.041	–	–	–
[3], x2 = 0.2	0.0538	–	–	–
[3], x2 = 0.25	0.0658	–	–	–
[3], x2 = 0.3	0.0764	–	–	–
[3], x2 = 0.35	0.0857	–	–	–
[3], x2 = 0.4	0.0936	–	–	–
[3], x2 = 0.45	0.0993	–	–	–
[3], x2 = 0.5	0.1031	–	–	–
[3], x2 = 0.55	0.105	–	–	–
[3], x2 = 0.6	0.104	–	–	–
[3], x2 = 0.65	0.102	–	–	–
[3], x2 = 0.7	0.0972	–	–	–
[3], x2 = 0.75	0.0894	–	–	–
[3], x2 = 0.8	0.0793	–	–	–
[3], x2 = 0.85	0.066	–	–	–
[3], x2 = 0.9	0.0486	–	–	–
[4], x2 = 0.1058	–	–	824.42	–
[4], x2 = 0.1274	–	–	827.37	–
[4], x2 = 0.244	–	–	844.52	–
[4], x2 = 0.3122	–	–	855.72	–
[4], x2 = 0.3693	–	–	865.84	–
[4], x2 = 0.3985	–	–	871.31	–
[4], x2 = 0.4258	–	–	876.6	–
[4], x2 = 0.4304	–	–	877.56	–
[4], x2 = 0.4313	–	–	877.69	–
[4], x2 = 0.4768	–	–	887.06	–
[4], x2 = 0.5071	–	–	893.63	–
[4], x2 = 0.5125	–	–	894.83	–
[4], x2 = 0.5141	–	–	895.15	–
[4], x2 = 0.536	–	–	900.1	–
[4], x2 = 0.5433	–	–	901.8	–
[4], x2 = 0.5928	–	–	913.69	–
[4], x2 = 0.6302	–	–	923.33	–
[4], x2 = 0.6308	–	–	923.51	–
[4], x2 = 0.667	–	–	933.32	–
[4], x2 = 0.7125	–	–	946.48	–
[4], x2 = 0.785	–	–	969.65	–
[4], x2 = 0.8627	–	–	997.8	–
[4], x2 = 0.9533	–	–	1036.16	–

C1COCO1 [1,3-dioxolane] + O=C1CCCCC1
[3]
Conditions	excess molar enthalpy [kcal/mol]
x1 = 0.1	0.0153
x1 = 0.15	0.0214
x1 = 0.2	0.0265
x1 = 0.25	0.0309
x1 = 0.3	0.0348
x1 = 0.35	0.0382
x1 = 0.4	0.0399
x1 = 0.45	0.0409
x1 = 0.5	0.041
x1 = 0.55	0.0404
x1 = 0.6	0.039
x1 = 0.65	0.0369
x1 = 0.7	0.0341
x1 = 0.75	0.0305
x1 = 0.8	0.0261
x1 = 0.85	0.0208
x1 = 0.9	0.0148

C1COCO1 [1,3-dioxolane]
Conditions	mass density [kg/m3]	molar heat capacity at constant pressure [J/K/mol]	refractive index
[5]	–	–	1.39797
[6]	–	121.66	–
[7]	1058.67	–	–
